# According to BindingDB's records for doi:10.1016/j.bmcl.2009.05.029 (Institute, 2009):
# Experiment: Inhibition of EphB2
row,EC50 [nM],SMILES
1,40,Cc1ccc(C(=O)Nc2cccc(C(F)(F)F)c2)cc1Nc1cncc(C(N)=O)c1 [5-[(2-methyl-5-{[3-(trifluoromethyl)phenyl]carbamoyl}phenyl)amino]pyridine-3-carboxamide]
2,40,Cc1cn(-c2cc(NC(=O)c3ccc(C)c(NC(=O)c4ccno4)c3)cc(C(F)(F)F)c2)cn1 [N-(2-methyl-5-(3-(4-methyl-1H-imidazol-1-yl)-5-(trifluoromethyl)phenylcarbamoyl)phenyl)isoxazole-5-carboxamide]
